Experiments:
[1] = cited from earlier work; for level of antibody response induced: mice, antigens bovine serum albumin and cytochrome b5; for IgG2a response to cytochrome b5: saponin doses of 20 μg
[2] = melanoma patients; cited from earlier work
[3] = test system: MO4 tumor or EG7-OVA tumor; assay: Tumor challenge model; type: in vivo, C57B1/6 mice; details: QS-21 (10-20 ug) with monoclonal antibody vs monoclonal antibody alone; 30 to 60 day period
Experimental: C57B1/6 mice are inoculated by s.c. route in the flank with MO4 tumor (1 ×10^5) or EG7-OVA tumor. At 24 to 48 hours after inoculation, mice are injected by IP route with a monoclonal antibody to SIINFEKL (SEQ ID NO: 1)/Class I MHC , or by local SC route in the presence or absence of QS-21 (10 -20 ug). The antitumor effect of the QS-21/monoclonal antibody treatment is compared to that of monoclonal antibody treatment by monitoring the growth of the tumors over a 30 to 60 day period (measurement with calipers). Survival was determined, and significance with respect to time to death was assessed using Cox regression analysis. Mice were also observed daily for signs of toxicity including level of activity, ruffled fur, diarrhea, and general appearance. […] Models and methods for evaluation of the effects of saponins and antibodies, or other immunoreactive reagents are known in the art. (Wooldridge et al., Blood, 1997, 89 (8): 2994-2998, incorporated by reference herein in its entirety).

[4] = mouse, in vivo; cited from earlier work
[5] = test system: bone marrow derived dendritic cells; assay: Cytokine production in bone marrow derived dendritic cells; type: cell-based
[6] = test system: Fc α R, Fc gamma R1, Fc gamma RII or Fc gamma RIII; assay: Upregulation of Fc receptors (FACScan); type: cell-based; details: QS-21 for example 1-10 ug/ml
Experimental: Monocytes, natural killer cells, or polymorphonuclear cells are incubated in the presence or absence of QS-21 (for example 1-10 ug/ml). The trypsinized cells are incubated at 4° C. for 60 min with monoclonal antibodies specific to Fc α R, Fc gamma R1, Fc gamma RII or Fc gamma RIII. The cells are then incubated with an anti-mouse IgG FITC probe, washed, fixed in paraformaldehyde, and analyzed by FACScan.

macrophage cells = assay: Cytokine production in macrophage cells; type: cell-based
[7] = test system: S. pneumonia or S. aureus; assay: Opsonophagocytosis assay with HL-60 effector cells; type: cell-based; details: HL-60 effector cells incubated with QS-21, at a given antibody titer
[8] = test system: target cells (E.G7-OVA or MO4); assay: Enhancement of antibody mediated lysis in vitro (51Cr-labeled target cells); type: cell-based, mice; details: splenocytes incubated with 1 to 10 ug/ml QS-21 for 24 to 72 hours; monoclonal antibody to SIINFEKL/Class I MHC 1 to 10 ug/ml
Experimental: Murine splenocytes (effector cells) are generated from the spleens of naive 6-8week old mice. These effector cells are incubated with 1 to 10 ug/ml of QS-21 or appropriate amount of another immunomodulatory saponin for 24 to 72 hours. At the end of the incubation period, target cells (E.G7-OVA or MO4) are loaded with 51 Cr. Effector cells and labeled target cells are incubated at defined effector:target ratios in the presence and absence of monoclonal antibody to SIINFEKL (SEQ ID NO: 1)/Class I MHC (1 to 10 ug/ml) at […] for 30 to 60minutes. The lysis in the presence of QS-21 and monoclonal is compared to controls without QS-21, without monoclonal, or both.

Row | Substance | level of antibody response induced [1] | IgG2a response to cytochrome b5 [1] | serological response to MELIMMUNE-1 [2] | tumor progression [3] | toxicity in mice [4] | production of II-12 [5] | production of IL-1 [5] | production of MIP-1-alpha [5] | production of MIP-1-beta [5] | Fc receptors on monocytes, natural killer cells, or polymorphonuclear cells [6] | IL-6 (macrophage cells) | MIP-1-alpha (macrophage cells) | TNF-alpha (macrophage cells) | opsonization of bacteria [7] | lysis due to QS-21/monoclonal over monoclonal alone [8]
1 | QS-17 | comparable to other commonly used adjuvants | stimulate IgG2a response | – | – | – | – | – | – | – | – | – | – | – | – | –
2 | QS-18 | comparable to other commonly used adjuvants | stimulate IgG2a response | – | – | – | – | – | – | – | – | – | – | – | – | –
3 | QS-21 | comparable to other commonly used adjuvants | stimulate IgG2a response | significantly increased | delay in tumor progression | least toxic | decrease the production | increase production | increase production | decrease the production | Upregulation | upregulation | upregulation | upregulation | Improved opsonization | enhanced lysis
